This test deals with E1, UbcH5c, UbcH7, HOIL-1L, RNF144A, HHARI, TRIAD3A RBR domains, NEDD4L, E6AP, OTULIN, CYLD-1. The experiment in a line: LC-MS-based enzyme counter screen. In kind it is binding. Particulars: 10-fold stoichiometric excess, 24 h incubation. The method, then: 0.1% formic acid in water. The samples were analyzed on a Q Exactive MS (Thermo Fisher) coupled to an Easy-nLC chromatographic system (Thermo Fisher) with a nano ESI source (Thermo Fisher). Each sample (2 µL) was injected and trapped on a C18 Acclaim pepMap 100 enrichment column (75 µm id × 2 cm, 3 µm nanoviper, Thermo Fisher). The samples were transferred to a C18 Acclaim PepMap RSLC analytical column (75 µm id × 15 cm, 2 µm, Thermo Fisher) at 300 nL/min. Mobile phase A (0.1% Formic acid in water, v/v); mobile phase B (0.1% […]
min (70-95% B), 56-61 min (95% B). The nanospray ionisation source was operated in the positive mode with spray voltage set at 2 kV, and heated capillary at 250 °C. The Q Exactive was operated in the data dependent mode and the top 15 most intense ions were subjected to HCD fragmentation with normalised collision energy set at 26%. The MS1 scans were performed at a resolution of 70 000 from 400-1600 m/z, automatic gain control (AGC) value 3 e6, maximum injection time 100 ms. […]
Compounds (1) and (5) were screened against E1, the E2s UbcH5c and UbcH7, the RBR domains of the E3 ligases HOIP, HOIL-1L, RNF144A, HHARI and TRIAD3A, the HECT E3 ligases NEDD4L and E6AP, and the DUBs OTULIN and CYLD-1. […] The samples were analyzed after 0.5 and 24 h incubation. […]

The structures appear in SMILES notation. Some results are limits rather than exact numbers.

Regarding `COC(=O)/C=C/CNC(=O)c1cc2c([nH]c1=O)CCC2` [Compound 5], the “labeling of all other proteins screened” value was below 40%.

The values above are taken from paper PMC6383986, “Fragment-Based Covalent Ligand Screening Enables Rapid Discovery of Inhibitors for the RBR E3 Ubiquitin Ligase HOIP” (Journal of the American Chemical Society, 2019).
